Source: patent US8952024B2, “Herbicidal pyrimidone derivatives” (E I du Pont de Nemours and Company, priority 2009, dated 2015)
Read-outs that look alike come from different tables or passages of the source.

Legend:
Assay in all cases: Test B pre-/postemergence plant response
Assay type in all cases: in vivo
[1] = test system: cocklebur (Xanthium strumarium)
Method in brief: (§1)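 Greenhouse herbicide screen. Pre- and postemergence (1- to 4-leaf) spray of compound in solvent/surfactant mixture; loam–sand soil for pre, peat/vermiculite medium for post. Visual control rating 0–100 at 13 to 15 days after treatment.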

[2] = test system: morningglory (Ipomoea coccinea)
Method in brief: as §1

[3] = test system: green foxtail (Setaria viridis); conditions: for pest or weed control at 31 g/ha: 31 g ai/ha, scale 0 to 100 (0 no effect, 100 complete control); for pest or weed control at 62 g/ha: 62 g ai/ha
Method in brief: as §1

kochia (Kochia scoparia) = conditions: Postemergence
Method in brief: as §1

[4] = test system: goosegrass (Eleusine indica); conditions: for pest or weed control at 62 g/ha: 62 g ai/ha
Method in brief: as §1

[5] = test system: downy bromegrass (Bromus tectorum); conditions: for pest or weed control at 31 g/ha: 31 g ai/ha, scale 0 to 100 (0 no effect, 100 complete control); for pest or weed control at 62 g/ha: 62 g ai/ha
Method in brief: as §1

[6] = Postemergence, 250 g ai/ha, scale 0 to 100
[7] = Preemergence, 125 g ai/ha, 0 to 100 scale

## Cc1c(F)cccc1-n1c(-c2ccccc2)ncc(C(=O)C2=C(O)CCCC2=O)c1=O [Compound 47, 3-(3-fluoro-2-methylphenyl)-5-[(2-hydroxy-6-oxo-1-cyclohexen-1-yl)carbonyl]-2-phenyl-4(3H)-pyrimidinone]
[1]; [6]
  Cocklebur plant response rating: 100
[1]; Xanthium strumarium, post-emergence, Postemergence, 31 g ai/ha, scale 0 to 100 (0 no effect, 100 complete control), read-out: Plant response rating, Cocklebur
  pest or weed control at 31 g/ha: 95%
[1]; Xanthium strumarium, post-emergence, Postemergence, 125 g ai/ha, visual rating after 13 to 15 days, scale 0 (no effect) to 100 (complete control)
  pest or weed control at 125 g/ha: 95%
[1]; Xanthium strumarium, pre-emergence, Preemergence, 62 g ai/ha, scale 0 to 100, 0 no effect, 100 complete control, read-out: Plant response rating, Cocklebur
  pest or weed control at 62 g/ha: 0%
[2]; Ipomoea, post-emergence, Postemergence, 62 g ai/ha, scale 0 (no effect) to 100 (complete control), 13 to 15 days, read-out: Plant response rating, Morningglory
  pest or weed control at 62 g/ha: 80%
[2]; Ipomoea, post-emergence, Postemergence, 125 g ai/ha, visual rating after 13 to 15 days, scale 0 (no effect) to 100 (complete control)
  pest or weed control at 125 g/ha: 90%
[2]; Ipomoea, pre-emergence, 250 g ai/ha, Preemergence, 0 to 100 scale, read-out: Plant response rating, Morningglory
  pest or weed control at 250 g/ha: 55%
[2]; Ipomoea, pre-emergence, Preemergence, 31 g ai/ha, scale 0 to 100 (0 no effect, 100 complete control), read-out: Plant response rating, Morningglory
  pest or weed control at 31 g/ha: 0%
[2]; [7]
  Morningglory plant response rating: 0
[3]; [6]
  Foxtail, Green plant response rating: 95
[3]; [7]
  Foxtail, Green plant response rating: 98
[3]; Setaria viridis, post-emergence, Postemergence, read-out: Plant response rating, Foxtail, Green
  pest or weed control at 31 g/ha: 80%
[3]; Setaria viridis, post-emergence, Postemergence, scale 0 (no effect) to 100 (complete control), 13 to 15 days, read-out: Plant response rating, Foxtail, Green
  pest or weed control at 62 g/ha: 90%
[3]; Setaria viridis, post-emergence, Postemergence, 125 g ai/ha, visual rating after 13 to 15 days, scale 0 (no effect) to 100 (complete control)
  pest or weed control at 125 g/ha: 95%
[3]; Setaria viridis, pre-emergence, 250 g ai/ha, Preemergence, 0 to 100 scale, read-out: Plant response rating, Foxtail, Green
  pest or weed control at 250 g/ha: 98%
[3]; Setaria viridis, pre-emergence, Preemergence, read-out: Plant response rating, Foxtail, Green
  pest or weed control at 31 g/ha: 65%
[3]; Setaria viridis, pre-emergence, Preemergence, scale 0 to 100, 0 no effect, 100 complete control, read-out: Plant response rating, Foxtail, Green
  pest or weed control at 62 g/ha: 80%
Kochia (Kochia scoparia); Bassia scoparia, post-emergence, 62 g ai/ha, scale 0 (no effect) to 100 (complete control), 13 to 15 days, read-out: Plant response rating, Kochia
  pest or weed control at 62 g/ha: 95%
Kochia (Kochia scoparia); Bassia scoparia, post-emergence, 125 g ai/ha, visual rating after 13 to 15 days, scale 0 (no effect) to 100 (complete control)
  pest or weed control at 125 g/ha: 98%
Kochia (Kochia scoparia); 250 g ai/ha, scale 0 to 100
  Kochia plant response rating: 100
[4]; Eleusine indica, post-emergence, Postemergence, scale 0 (no effect) to 100 (complete control), 13 to 15 days, read-out: Plant response rating, Goosegrass
  pest or weed control at 62 g/ha: 95%
[4]; Eleusine indica, post-emergence, Postemergence, 125 g ai/ha, visual rating after 13 to 15 days, scale 0 (no effect) to 100 (complete control)
  pest or weed control at 125 g/ha: 95%
[4]; Eleusine indica, pre-emergence, 250 g ai/ha, Preemergence, 0 to 100 scale, read-out: Plant response rating, Goosegrass
  pest or weed control at 250 g/ha: 100%
[4]; Eleusine indica, pre-emergence, Preemergence, 31 g ai/ha, scale 0 to 100 (0 no effect, 100 complete control), read-out: Plant response rating, Goosegrass
  pest or weed control at 31 g/ha: 95%
[4]; Eleusine indica, pre-emergence, Preemergence, scale 0 to 100, 0 no effect, 100 complete control, read-out: Plant response rating, Goosegrass
  pest or weed control at 62 g/ha: 100%
[4]; [6]
  Goosegrass plant response rating: 98
[4]; [7]
  Goosegrass plant response rating: 100
[5]; Bromus tectorum, post-emergence, Postemergence, read-out: Plant response rating, Bromegrass, Downy
  pest or weed control at 31 g/ha: 35%
[5]; Bromus tectorum, post-emergence, Postemergence, scale 0 (no effect) to 100 (complete control), 13 to 15 days, read-out: Plant response rating, Bromegrass, Downy
  pest or weed control at 62 g/ha: 40%
[5]; Bromus tectorum, post-emergence, Postemergence, 125 g ai/ha, visual rating after 13 to 15 days, scale 0 (no effect) to 100 (complete control)
  pest or weed control at 125 g/ha: 50%
[5]; Bromus tectorum, pre-emergence, 250 g ai/ha, Preemergence, 0 to 100 scale, read-out: Plant response rating, Bromegrass, Downy
  pest or weed control at 250 g/ha: 10%
[5]; Bromus tectorum, pre-emergence, Preemergence, read-out: Plant response rating, Bromegrass, Downy
  pest or weed control at 31 g/ha: 0%
[5]; Bromus tectorum, pre-emergence, Preemergence, scale 0 to 100, 0 no effect, 100 complete control, read-out: Plant response rating, Bromegrass, Downy
  pest or weed control at 62 g/ha: 5%
[5]; [6]
  Bromegrass, Downy plant response rating: 55
[5]; [7]
  Bromegrass, Downy plant response rating: 5
